Molecules are shown by their SMILES.

The record followed here is US20240208992A1, “MACROCYCLES AS CFTR MODULATORS” (Idorsia Pharmaceuticals Ltd, priority 2021, published 2024).

In this test the target is human F508del-CFTR (Homo sapiens, UniProt P13569, DEL508-508). The test can be described thus: F508del-CFTR cell surface expression (corrector activity), DiscoveRx ß-galactosidase complementation chemiluminescence assay in recombinant U2OS cell line.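 For all read-outs here: U2OS cells co-expressing ProLink-tagged F508del-CFTR and a membrane-anchored enzyme acceptor, where more surface CFTR restores β-galactosidase activity measured by chemiluminescence.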 The conditions noted are these: for EC50: EC50, F508del-CFTR cell surface expression, U2OS cells, 16h compound incubation, geomean values; for Emax: in relation to Emax of corrector lumacaftor (=100%), arithmetic mean values.
Chain of human F508del-CFTR (P13569 with tags, fused parts or gaps DEL508-508): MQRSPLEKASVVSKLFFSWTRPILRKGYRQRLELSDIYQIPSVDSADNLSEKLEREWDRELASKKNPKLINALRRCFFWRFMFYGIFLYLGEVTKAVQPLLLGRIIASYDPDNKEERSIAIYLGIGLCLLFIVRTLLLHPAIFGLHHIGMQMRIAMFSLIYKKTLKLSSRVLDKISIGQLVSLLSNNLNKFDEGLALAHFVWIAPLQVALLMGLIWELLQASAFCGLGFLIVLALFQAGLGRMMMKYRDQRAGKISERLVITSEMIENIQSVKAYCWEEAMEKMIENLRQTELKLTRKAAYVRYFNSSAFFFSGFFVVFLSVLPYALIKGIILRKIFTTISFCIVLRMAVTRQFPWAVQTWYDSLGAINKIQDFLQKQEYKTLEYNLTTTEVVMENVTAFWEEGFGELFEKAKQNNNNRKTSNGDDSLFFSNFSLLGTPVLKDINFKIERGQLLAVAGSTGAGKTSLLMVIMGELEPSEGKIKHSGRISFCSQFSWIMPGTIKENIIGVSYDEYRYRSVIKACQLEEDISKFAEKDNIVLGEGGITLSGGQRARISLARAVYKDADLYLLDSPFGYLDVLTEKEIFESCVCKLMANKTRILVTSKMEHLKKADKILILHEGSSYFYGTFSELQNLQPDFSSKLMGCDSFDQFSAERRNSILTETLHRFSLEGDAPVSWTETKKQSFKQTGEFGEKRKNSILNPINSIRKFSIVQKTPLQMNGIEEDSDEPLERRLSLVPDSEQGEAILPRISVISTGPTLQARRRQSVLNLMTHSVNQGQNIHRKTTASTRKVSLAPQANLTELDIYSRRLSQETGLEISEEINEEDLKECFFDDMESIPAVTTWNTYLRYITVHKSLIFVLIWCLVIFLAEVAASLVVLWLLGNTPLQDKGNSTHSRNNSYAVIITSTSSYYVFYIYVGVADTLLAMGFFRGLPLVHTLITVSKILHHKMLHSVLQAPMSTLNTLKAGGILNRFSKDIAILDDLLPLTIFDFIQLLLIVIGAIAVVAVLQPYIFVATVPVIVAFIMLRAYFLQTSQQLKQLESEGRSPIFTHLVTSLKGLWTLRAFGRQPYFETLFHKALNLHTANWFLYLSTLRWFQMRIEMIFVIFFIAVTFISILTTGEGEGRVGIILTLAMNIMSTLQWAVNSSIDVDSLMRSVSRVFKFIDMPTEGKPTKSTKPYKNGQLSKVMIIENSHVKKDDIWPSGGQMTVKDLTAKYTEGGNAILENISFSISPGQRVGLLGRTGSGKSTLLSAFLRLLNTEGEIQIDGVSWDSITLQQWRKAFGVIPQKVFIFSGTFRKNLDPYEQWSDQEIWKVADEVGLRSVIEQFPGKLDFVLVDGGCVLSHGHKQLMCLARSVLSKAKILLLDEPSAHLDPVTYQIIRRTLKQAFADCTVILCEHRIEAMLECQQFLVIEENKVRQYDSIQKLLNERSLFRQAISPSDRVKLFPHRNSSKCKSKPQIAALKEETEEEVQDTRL

For `CC(C)C[C@H]1C(=O)N2CCN(c3ccccc3)C[C@H]2C(=O)N[C@H](Cc2ccccc2)COc2cnc3ccc(F)cc3c2C(=O)N[C@H](C(=O)NCCc2cc(C3CC3)no2)CC(=O)N1C` [Example 524, (9S,13S,19aR,22R)-22-benzyl-N-(2-(3-cyclopropylisoxazol-5-yl)ethyl)-5-fluoro-13-isobutyl-12-methyl-7,11,14,20-tetraoxo-18-phenyl-7,8,9,10,11,12,13,14,17,18,19,19a,20,21,22,23-hexadecahydro-16H-pyrazino[2′,11:6,7][1]oxa[4,7,10,14]tetraazacycloheptadecino[17,16-c]quinoline-9-carboxamide], the EC50 is 60 nM. In addition, the Emax (U2OS) amounted to 339%.

On to `CC(C)C[C@H]1C(=O)N2CCN(c3ccccc3)C[C@H]2C(=O)N[C@H](Cc2ccccc2)COc2cnc3ccc(F)cc3c2C(=O)N[C@H](C(=O)NCCc2nc(C3CC3)no2)CC(=O)N1C` [Example 525, (9S,13S,19aR,22R)-22-benzyl-N-(2-(3-cyclopropyl-1,2,4-oxadiazol-5-yl)ethyl)-5-fluoro-13-isobutyl-12-methyl-7,11,14,20-tetraoxo-18-phenyl-7,8,9,10,11,12,13,14,17,18,19,19a,20,21,22,23-hexadecahydro-16H-pyrazino[2′,11:6,7][1]oxa[4,7,10,14]tetraazacycloheptadecino[17,16-c]quinoline-9-carboxamide], for which the EC50 is 56 nM. Moreover, the Emax (U2OS) was 288%.

On to `COc1cc2c(cn1)OC[C@@H](Cc1ccccc1)NC(=O)[C@H]1CCCCN1C(=O)[C@H](CC(C)C)N(C)C(=O)C[C@@H](C(=O)NCCc1cc(C3CC3)on1)NC2=O` [Example 526, (7S,11S,17aR,20R)-20-benzyl-N-(2-(5-cyclopropylisoxazol-3-yl)ethyl)-11-isobutyl-3-methoxy-10-methyl-5,9,12,18-tetraoxo-5,6,7,8,9,10,11,12,15,16,17,17a,18,19,20,21-hexadecahydro-14H-dipyrido[2,1-f:4′,3′-p][1]oxa[4,7,10,14]tetraazacycloheptadecine-7-carboxamide], for which the EC50 worked out at 394 nM and the Emax is recorded as 167%.

`Cc1cc(CCNC(=O)[C@@H]2CC(=O)N(C)[C@@H](CC(C)C)C(=O)N3CCCC[C@H]3C(=O)N[C@H](Cc3ccccc3)COc3cnc4ccc(Cl)cc4c3C(=O)N2)on1` [Example 527, (9S,13S,19aR,22R)-22-benzyl-5-chloro-13-isobutyl-12-methyl-N-(2-(3-methylisoxazol-5-yl)ethyl)-7,11,14,20-tetraoxo-7,8,9,10,11,12,13,14,17,18,19,19a,20,21,22,23-hexadecahydro-16H-pyrido[2′,11:6,7][1]oxa[4,7,10,14]tetraazacycloheptadecino[17,16-c]quinoline-9-carboxamide]: the half-maximal effective concentration (EC50) is 151 nM. For the same compound, the maximal effect (Emax) (U2OS) amounted to 318%.

Regarding `COc1cccc(CCNC(=O)[C@@H]2CC(=O)N(C)[C@@H](CC(C)C)C(=O)N3CCCC[C@@H]3C(=O)N[C@H](Cc3ccccc3)COc3cnc4ccc(Cl)cc4c3C(=O)N2)c1` [Example 528, (9S,13S,19aR,22R)-22-benzyl-5-chloro-13-isobutyl-N-(3-methoxyphenethyl)-12-methyl-7,11,14,20-tetraoxo-7,8,9,10,11,12,13,14,17,18,19,19a,20,21,22,23-hexadecahydro-16H-pyrido[2′,11:6,7][1]oxa[4,7,10,14]tetraazacycloheptadecino[17,16-c]quinoline-9-carboxamide], the EC50 came to 321 nM. Also, the Emax (U2OS) was 337%.

With `COc1cc2c(cn1)OC[C@@H](Cc1ccccc1)NC(=O)[C@H]1CCCCN1C(=O)[C@H](CC(C)C)N(C)C(=O)C[C@@H](C(=O)NCCc1nc(C3CC3)no1)NC2=O` [Example 529, (7S,11S,17aR,20R)-20-benzyl-N-(2-(3-cyclopropyl-1,2,4-oxadiazol-5-yl)ethyl)-11-isobutyl-3-methoxy-10-methyl-5,9,12,18-tetraoxo-5,6,7,8,9,10,11,12,15,16,17,17a,18,19,20,21-hexadecahydro-14H-dipyrido[2,1-f:2′,3′-p][1]oxa[4,7,10,14]tetraazacycloheptadecine-7-carboxamide], the EC50 was determined as 947 nM. Further, the Emax (U2OS) is 206%.

For the compound `COc1cccc(CCNC(=O)[C@@H]2CC(=O)N(C)[C@@H](CC(C)C)C(=O)N(C)CC(=O)N[C@H](Cc3ccccc3)COc3ncc4ccccc4c3C(=O)N2)c1` [Example 530], the EC50 was found to be 334 nM. The Emax (U2OS) was 353%.

Consider `COc1cccc(CCNC(=O)[C@@H]2CC(=O)N(C)[C@@H](CC(C)C)C(=O)N(C)CC(=O)N[C@H](Cc3ccccc3)COc3ccc4cc(C)oc4c3C(=O)N2)c1` [Example 531, (8R,14S,18S)-8-benzyl-14-isobutyl-N-(3-methoxyphenethyl)-2,12,15-trimethyl-10,13,16,20-tetraoxo-7,8,9,10,11,12,13,14,15,16,17,18,19,20-tetradecahydrobenzofuro[7,6-p][1]oxa[4,7,10,14]tetraazacycloheptadecine-18-carboxamide], for which the EC50 worked out at 265 nM. The Emax (U2OS) amounted to 336%.

With `Cc1cc2ccc3c(c2o1)C(=O)N[C@H](C(=O)NCCc1cc(C2CC2)no1)CC(=O)N(C)[C@@H](CC(C)C)C(=O)N(C)CC(=O)N[C@H](Cc1ccccc1)CO3` [Example 532, (8R,14S,18S)-8-benzyl-N-(2-(3-cyclopropylisoxazol-5-yl)ethyl)-14-isobutyl-2,12,15-trimethyl-10,13,16,20-tetraoxo-7,8,9,10,11,12,13,14,15,16,17,18,19,20-tetradecahydrobenzofuro[7,6-p][1]oxa[4,7,10,14]tetraazacycloheptadecine-18-carboxamide], the EC50 was 397 nM. Also, the Emax (U2OS) was 375%.

Regarding `COc1cc(CCNC(=O)[C@@H]2CC(=O)N(C)[C@@H](CC(C)C)C(=O)N3CCCC[C@@H]3C(=O)N[C@H](Cc3ccccc3)COc3cc(C)nc(OC)c3C(=O)N2)on1` [Example 533, (7S,11S,17aR,20R)-20-benzyl-11-isobutyl-4-methoxy-N-(2-(3-methoxyisoxazol-5-yl)ethyl)-2,10-dimethyl-5,9,12,18-tetraoxo-5,6,7,8,9,10,11,12,15,16,17,17a,18,19,20,21-hexadecahydro-14H-dipyrido[2,1-f:3′,4′-p][1]oxa[4,7,10,14]tetraazacycloheptadecine-7-carboxamide], the EC50 is 221 nM. Further, the Emax (U2OS) was found to be 352%.

Regarding `Cc1cc(CCNC(=O)[C@@H]2CC(=O)N(C)[C@@H](CC(C)C)C(=O)N3CCCC[C@@H]3C(=O)N[C@H](Cc3ccccc3)COc3cnc4cccc(F)c4c3C(=O)N2)on1` [Example 534, (9S,13S,19aR,22R)-22-benzyl-6-fluoro-13-isobutyl-12-methyl-N-(2-(3-methylisoxazol-5-yl)ethyl)-7,11,14,20-tetraoxo-7,8,9,10,11,12,13,14,17,18,19,19a,20,21,22,23-hexadecahydro-16H-pyrido[2′,1′:6,7][1]oxa[4,7,10,14]tetraazacycloheptadecino[17,16-c]quinoline-9-carboxamide], the EC50 was 273 nM. The Emax (U2OS) is 394%.

With `COc1cccc(CCNC(=O)[C@@H]2CC(=O)N(C)[C@@H](CC(C)C)C(=O)N3CCCC[C@@H]3C(=O)N[C@H](Cc3ccccc3)COc3cnc4cccc(F)c4c3C(=O)N2)c1` [Example 535, (9S,13S,19aR,22R)-22-benzyl-6-fluoro-13-isobutyl-N-(3-methoxyphenethyl)-12-methyl-7,11,14,20-tetraoxo-7,8,9,10,11,12,13,14,17,18,19,19a,20,21,22,23-hexadecahydro-16H-pyrido[2′,1′:6,7][1]oxa[4,7,10,14]tetraazacycloheptadecino[17,16-c]quinoline-9-carboxamide], the EC50 was 407 nM. Further, the Emax (U2OS) is 424%.

`COc1cccc(CCNC(=O)[C@@H]2CC(=O)N(C)[C@@H](CC(C)C)C(=O)N3CCN(c4ccccc4)C[C@@H]3C(=O)N[C@H](Cc3ccccc3)COc3ccc4nc(C)oc4c3C(=O)N2)c1` [Example 536, (8S,12S,18aR,21R)-21-benzyl-12-isobutyl-N-(3-methoxyphenethyl)-4,11-dimethyl-6,10,13,19-tetraoxo-17-phenyl-6,7,8,9,10,11,12,13,16,17,18,18a,19,20,21,22-hexadecahydro-15H-oxazolo[4′,5′:5,6]benzo[1,2-p]pyrazino[2,1-f][1]oxa[4,7,10,14]tetraazacycloheptadecine-8-carboxamide]: the EC50 turned out to be 175 nM. The Emax (U2OS) amounted to 358%.

`COc1cccc(CCNC(=O)[C@@H]2CC(=O)N(C)[C@@H](CC(C)C)C(=O)N3CC[C@@H](C3)C(=O)N[C@H](Cc3ccccc3)COc3cnc4ccc(F)cc4c3C(=O)N2)c1` [Example 537, (73S,4R,9S,13S)-4-benzyl-16-fluoro-9-isobutyl-N-(3-methoxyphenethyl)-10-methyl-6,8,11,15-tetraoxo-2-oxa-5,10,14-triaza-1(3,4)-quinolina-7(3,1)-pyrrolidinacyclopentadecaphane-13-carboxamide]: the EC50 stood at 384 nM. For the same compound, the Emax (U2OS) worked out at 294%.

With `COc1cccc(CCNC(=O)[C@@H]2CC(=O)N(C)[C@@H](CC(C)C)C(=O)N3CCN(c4ccccc4)C[C@@H]3C(=O)N[C@H](Cc3ccccc3)COc3ccnc(OC)c3C(=O)N2)c1` [Example 538, (7S,11S,20R,22aR)-20-benzyl-7-isobutyl-14-methoxy-N-(3-methoxyphenethyl)-8-methyl-6,9,13,22-tetraoxo-2-phenyl-1,3,4,6,7,8,9,10,11,12,13,19,20,21,22,22a-hexadecahydro-2H-pyrazino[2,1-f]pyrido[3,4-p][1]oxa[4,7,10,14]tetraazacycloheptadecine-11-carboxamide], the EC50 is 80 nM. Moreover, under “U2OS”, the Emax was determined as 340%.
